Measurements published in patent publication US20160090383A1, “ANTIBACTERIAL PHTHALIDE DERIVATIVES” (priority 2013, published 2016).
In brackets after ≈: the same amount, converted by molar mass.

Assays:
Assay in all cases: Bacterial growth minimal inhibitory concentration (microdilution, CLSI M7-A7)
Format in all cases: cell-based
[1] = test system: Enterococcus faecium A949; settings: multiply-resistant strain (quinolone-resistant and vancomycin-resistant), cation-adjusted Mueller-Hinton Broth; for MIC: Enterococcus faecium, A949, read-out: MIC for E. faecium A949
Experimental: (§1) Minimal Inhibitory Concentrations (MICs; […]) were determined in cation-adjusted Mueller-Hinton Broth by a microdilution method following the description given in “Methods for Dilution Antimicrobial Susceptibility Tests for Bacteria that Grow Aerobically”, Approved standard, 7th ed., Clinical and Laboratory Standards Institute (CLSI) Document M7-A7, Wayne, Pa., USA, 2006.

[2] = test system: Moraxella catarrhalis A894; settings: quinolone-sensitive strain, cation-adjusted Mueller-Hinton Broth; for MIC: Moraxella catarrhalis, A894
Experimental: as §1

[3] = test system: Staphylococcus aureus A798; settings: multiply-resistant strain (quinolone-resistant and methicillin-resistant), cation-adjusted Mueller-Hinton Broth; for MIC: Staphylococcus aureus, A798, read-out: MIC for S. aureus A798
Experimental: as §1

[4] = test system: Staphylococcus aureus ATCC29213; settings: methicillin-sensitive and quinolone-sensitive strain, cation-adjusted Mueller-Hinton Broth; for MIC: Staphylococcus aureus, ATCC29213, read-out: MIC for S. aureus ATCC29213
Experimental: as §1

[5] = test system: Streptococcus pneumonia ATTC49619; settings: quinolone-sensitive strain, cation-adjusted Mueller-Hinton Broth; for MIC: Streptococcus pneumoniae, ATTC49619, read-out: MIC for S. pneumonia ATTC49619
Experimental: as §1

Row | Molecule | MIC [1] [µg/mL] | MIC [2] [µg/mL] | MIC [3] [µg/mL] | MIC [4] [µg/mL] | MIC [5] [µg/mL] | MIC for E. faecium A949 [1] [µg/mL] | MIC for M. catarrhalis A894 [2] [µg/mL] | MIC for S. aureus A798 [3] | MIC for S. aureus ATCC29213 [4] | MIC for S. pneumonia ATTC49619 [5] [µg/mL]
1 | N—((R)-9-Fluoro-4-oxo-1,2-dihydro-4H-pyrrolo[3,2,1-ij]quinolin-1-ylmethyl)-2-((R)-3-oxo-5-phenyl-1,3-dihydro-isobenzofuran-1-yl)-acetamide and N—((R)-9-Fluoro-4-oxo-1,2-dihydro-4H-pyrrolo[3,2,1-ij]quinolin-1-ylmethyl)-2-((S)-3-oxo-5-phenyl-1,3-dihydro-isobenzofuran-1-yl)-acetamide [Example 1] |  |  |  |  |  | 0.125 | 0.25 | ≦0.016 mg/L | ≦0.016 mg/L | 0.125
2 | O=C(Cn1c(=O)ccc2ccc(F)cc21)NCCC1OC(=O)c2cc(-c3cc(F)cc(F)c3)ccc21 (racemic) [Example 24, rac-N-{2-[5-(3,5-Difluoro-phenyl)-3-oxo-1,3-dihydro-isobenzofuran-1-yl]-ethyl}-2-(7-fluoro-2-oxo-2H-quinolin-1-yl)-acetamide] | 0.5 (≈ 1.02 µM) | 0.5 (≈ 1.02 µM) | 0.5 (≈ 1.02 µM) | 0.125 (≈ 0.254 µM) | 2 (≈ 4.06 µM) |  |  |  |  | 

Now from value to molecule, other results behind:

Row | MIC [1] [µg/mL] | MIC [2] [µg/mL] | MIC [3] [µg/mL] | MIC [4] [µg/mL] | MIC [5] [µg/mL] | Molecule | MIC for E. faecium A949 [1] [µg/mL] | MIC for M. catarrhalis A894 [2] [µg/mL] | MIC for S. aureus A798 [3] | MIC for S. aureus ATCC29213 [4] | MIC for S. pneumonia ATTC49619 [5] [µg/mL]
3 | 0.25 (≈ 0.508 µM) | 0.125 (≈ 0.254 µM) | 0.25 (≈ 0.508 µM) | 0.031 (≈ 0.063 µM) | 0.25 (≈ 0.508 µM) | O=C(CC1OC(=O)c2cc(-c3cc(F)cc(F)c3)ccc21)NCCn1c(=O)ccc2ccc(F)cc21 (racemic) [Example 11, rac-2-[5-(3,5-Difluoro-phenyl)-3-oxo-1,3-dihydro-isobenzofuran-1-yl]-N-[2-(7-fluoro-2-oxo-2H-quinolin-1-yl)-ethyl]-acetamide] |  |  |  |  | 
4 | 0.25 (≈ 0.56 µM) | 1 (≈ 2.24 µM) | 0.25 (≈ 0.56 µM) | 0.031 (≈ 0.0694 µM) | 2 (≈ 4.48 µM) | O=C(CC1OC(=O)c2cc(C3=CCCC3)ccc21)NCCn1c(=O)ccc2ccc(F)cc21 (racemic) [Example 12, rac-2-(5-Cyclopent-1-enyl-3-oxo-1,3-dihydro-isobenzofuran-1-yl)-N-[2-(7-fluoro-2-oxo-2H-quinolin-1-yl)-ethyl]-acetamide] |  |  |  |  | 
5 | 0.063 (≈ 0.145 µM) | 0.5 (≈ 1.15 µM) | ≤ 0.016 | ≤ 0.016 | 0.5 (≈ 1.15 µM) | CC(C)=Cc1ccc2c(c1)C(=O)OC2CC(=O)NCCn1c(=O)ccc2ccc(F)cc21 (racemic) [Example 17, rac-N-[2-(7-Fluoro-2-oxo-2H-quinolin-1-yl)-ethyl]-2-[5-(2-methyl-propenyl)-3-oxo-1,3-dihydro-isobenzofuran-1-yl]-acetamide] |  |  |  |  | 
